Data as given in US11291704B2, “Composition for preventing or treating obesity containing ethanolic extract of Ramulus mori” (Korea University Research and Business Foundation, priority 2016, dated 2022).

Test system: 3T3-L1 cells
Assay: Lipid accumulation evaluation, Oil red O staining of MDI-differentiated adipocytes
Assay type: cell-based
Details: 5 mM; DMSO-only sample = 100%; absorbance at 500 nm
Experimental: For induction of 3T3-L1 cells into adipocytes, the cells were treated with MDI (5 μg/ml insulin, 0.5 mM IBMX, and 1.0 μM dexamethasone) in DMEM containing 10% FBS and 1% penicillin-streptomycin, followed by induction of differentiation for 2 days. The differentiated 3T3-L1 cells were washed with physiological buffered saline (PBS), and then fixed with 10% formalin for 1 hour. The fixed cells were washed twice with ddH2O, treated with 60% isopropanol for 5 minutes, and then stained with Oil red O solution (dissolved in 60% isopropanol) for 10 minutes. After staining, the cells were washed four times with ddH2O, and de-stained with 100% isopropanol for 10 minutes, and then the cells were observed using a microscope and measured for absorbance at 500 nm.
The result of the sample treated with only DMSO used as a solvent was converted to 100%, and quantitatively measured for lipids.

CC(=O)N[C@@H](CS)C(=O)O [n-acetyl cysteine]
lipid accumulation: 20.6±3.7%
